Assay results taken from patent US20230276831A1, “Food/Beverage Article” (Kikkoman Corporation, priority 2020, published 2023).

Test system: Lactobacillus acidipiscis NBRC 102163
Experiment: Antimicrobial action of licoricidin in liquid seasoning (1), lactic acid bacteria C
Format: cell-based
Parameters: key: A: The bacterial count decreases to less than 10% of the bacterial count of the control group.; B: The bacterial count decreases to 10% or more and less than 50% of the bacterial count of the control group.; C: The bacterial count decreases to 50% or more and less than 100% of the bacterial count of control group.; D: The bacterial count is the same as the bacterial count of the control group
Method: Commercially available whole soybean soy sauce (produced by Kikkoman Corporation) was electrodialyzed and then concentrated under reduced pressure to obtain soy sauce at a salt concentration of 0% (w/v) and an alcohol concentration of 0% (v/v). Then, salt and/or alcohol was added to the above-mentioned obtained soy sauce, and the mixture was heat-treated to produce soy sauces at salt concentrations and alcohol concentrations shown in the following Table 5. The pHs of the soy sauces were 4.9 to 5.0.
Specifically, components contained in dried bonito was extracted with alcohol and water; sugar, salt, and seasonings were blended with the obtained extract; and the resulting mixture was heated to produce bonito stock. The salt concentration of the obtained bonito stock was 0.2% (w/v), the alcohol concentration was 0.15% (v/v), and the pH was 6.1.
Specifically, Koikuchi soy sauce (produced by Kikkoman Corporation), granulated sugar, potato starch, and water were blended in amounts shown in following Table 7, and the resulting mixture was heated to produce sauce. The salt concentration of the obtained sauce was 5.3% (w/v), the alcohol concentration was 0.8% (v/v), and the pH was 5.0.
Specifically, the components contained in dried bonito was extracted with water; Koikuchi soy sauce (produced by Kikkoman Corporation), sugar, and salt were blended with the obtained extract; and the resulting mixture was heated to produce Japanese seasoned soup stock. The salt concentration of the obtained Japanese seasoned soup stock was 3% (w/v), the alcohol concentration was 0.4% (v/v), and the pH was 5.5.
Licoricidin (produced by ChemFaces) was added to each of the liquid seasonings produced in the above-mentioned (1) to concentrations of 1 ppm, 5 ppm, 10 ppm, 25 ppm, and 50 ppm. Lactic acid bacteria described in the following Table 9 were then added to 10^6 to 10^7 cells/mL and cultured at 30° C. for 7 days. After the culture, the number of lactic acid bacteria was measured using the GAM agar medium “Nissui”. Liquid seasoning to which licoricidin was not added was used as a control group, and the antimicrobial activity was evaluated in comparison with the number of lactic acid bacteria in the control group. The evaluation was performed using the criterion shown below.
• A: The bacterial count decreases to less than 10% of the bacterial count of the control group. • B: The bacterial count decreases to 10% or more and less than 50% of the bacterial count of the control group. • C: The bacterial count decreases to 50% or more and less than 100% of the bacterial count of control group. • D: The bacterial count is the same as the bacterial count of the control group.

In the case of COc1c(CC=C(C)C)c(O)cc2c1C[C@H](c1ccc(O)c(CC=C(C)C)c1O)CO2 [Licoricidin, 4-[(R)-7-hydroxy-5-methoxy-6-(3-methyl-2-butenyl)chroman-3-yl]-2-(3-methyl-2-butenyl)-1,3-benzenediol], the Antimicrobial activity (Bonito stock (salt 0.2% (w/v), alcohol 0.15% (v/v), pH 6.1), licoricidin 1 ppm) is reported as “C (The bacterial count decreases to 50% or more and less than 100% of the bacterial count of control group.)”, the Antimicrobial activity (Bonito stock (salt 0.2% (w/v), alcohol 0.15% (v/v), pH 6.1), licoricidin 5 ppm) is reported as “A (The bacterial count decreases to less than 10% of the bacterial count of the control group.)” and the Antimicrobial activity (Bonito stock (salt 0.2% (w/v), alcohol 0.15% (v/v), pH 6.1), licoricidin 10 ppm) is reported as “A (The bacterial count decreases to less than 10% of the bacterial count of the control group.)”. For the same compound, the Antimicrobial activity (Bonito stock (salt 0.2% (w/v), alcohol 0.15% (v/v), pH 6.1), licoricidin 25 ppm) was “A (The bacterial count decreases to less than 10% of the bacterial count of the control group.)”, the Antimicrobial activity (Bonito stock (salt 0.2% (w/v), alcohol 0.15% (v/v), pH 6.1), licoricidin 50 ppm) was “A (The bacterial count decreases to less than 10% of the bacterial count of the control group.)” and the Antimicrobial activity (Japanese seasoned soup stock (salt 3% (w/v), alcohol 0.4% (v/v), pH 5.5), licoricidin 1 ppm) was “D”. The Antimicrobial activity (Japanese seasoned soup stock (salt 3% (w/v), alcohol 0.4% (v/v), pH 5.5), licoricidin 5 ppm) was “A (The bacterial count decreases to less than 10% of the bacterial count of the control group.)”, the Antimicrobial activity (Japanese seasoned soup stock (salt 3% (w/v), alcohol 0.4% (v/v), pH 5.5), licoricidin 10 ppm) was “A (The bacterial count decreases to less than 10% of the bacterial count of the control group.)” and the Antimicrobial activity (Japanese seasoned soup stock (salt 3% (w/v), alcohol 0.4% (v/v), pH 5.5), licoricidin 25 ppm) was “A (The bacterial count decreases to less than 10% of the bacterial count of the control group.)”. For the same compound, the Antimicrobial activity (Japanese seasoned soup stock (salt 3% (w/v), alcohol 0.4% (v/v), pH 5.5), licoricidin 50 ppm) was “A (The bacterial count decreases to less than 10% of the bacterial count of the control group.)”, the Antimicrobial activity (Sauce (salt 5.3% (w/v), alcohol 0.8% (v/v), pH 5.0), licoricidin 1 ppm) was “B (The bacterial count decreases to 10% or more and less than 50% of the bacterial count of the control group.)” and the Antimicrobial activity (Sauce (salt 5.3% (w/v), alcohol 0.8% (v/v), pH 5.0), licoricidin 5 ppm) was “B (The bacterial count decreases to 10% or more and less than 50% of the bacterial count of the control group.)”. For the same compound, the Antimicrobial activity (Sauce (salt 5.3% (w/v), alcohol 0.8% (v/v), pH 5.0), licoricidin 10 ppm) was “A (The bacterial count decreases to less than 10% of the bacterial count of the control group.)”, the Antimicrobial activity (Sauce (salt 5.3% (w/v), alcohol 0.8% (v/v), pH 5.0), licoricidin 25 ppm) was “A (The bacterial count decreases to less than 10% of the bacterial count of the control group.)” and the Antimicrobial activity (Sauce (salt 5.3% (w/v), alcohol 0.8% (v/v), pH 5.0), licoricidin 50 ppm) was “A (The bacterial count decreases to less than 10% of the bacterial count of the control group.)”. The Antimicrobial activity (Soy sauce, salt 0% (w/v), alcohol 0% (v/v), licoricidin 1 ppm) was “C (The bacterial count decreases to 50% or more and less than 100% of the bacterial count of control group.)”, the Antimicrobial activity (Soy sauce, salt 0% (w/v), alcohol 0% (v/v), licoricidin 5 ppm) was “C (The bacterial count decreases to 50% or more and less than 100% of the bacterial count of control group.)” and the Antimicrobial activity (Soy sauce, salt 0% (w/v), alcohol 0% (v/v), licoricidin 10 ppm) was “B (The bacterial count decreases to 10% or more and less than 50% of the bacterial count of the control group.)”. For the same compound, the Antimicrobial activity (Soy sauce, salt 0% (w/v), alcohol 0% (v/v), licoricidin 25 ppm) was “A (The bacterial count decreases to less than 10% of the bacterial count of the control group.)”, the Antimicrobial activity (Soy sauce, salt 0% (w/v), alcohol 0% (v/v), licoricidin 50 ppm) was “A (The bacterial count decreases to less than 10% of the bacterial count of the control group.)” and the Antimicrobial activity (Soy sauce, salt 4% (w/v), alcohol 0% (v/v), licoricidin 1 ppm) was “C (The bacterial count decreases to 50% or more and less than 100% of the bacterial count of control group.)”. The Antimicrobial activity (Soy sauce, salt 4% (w/v), alcohol 0% (v/v), licoricidin 5 ppm) was “A (The bacterial count decreases to less than 10% of the bacterial count of the control group.)”, the Antimicrobial activity (Soy sauce, salt 4% (w/v), alcohol 0% (v/v), licoricidin 10 ppm) was “A (The bacterial count decreases to less than 10% of the bacterial count of the control group.)” and the Antimicrobial activity (Soy sauce, salt 4% (w/v), alcohol 0% (v/v), licoricidin 25 ppm) was “A (The bacterial count decreases to less than 10% of the bacterial count of the control group.)”. The Antimicrobial activity (Soy sauce, salt 4% (w/v), alcohol 0% (v/v), licoricidin 50 ppm) was “A (The bacterial count decreases to less than 10% of the bacterial count of the control group.)”, the Antimicrobial activity (Soy sauce, salt 8% (w/v), alcohol 0% (v/v), licoricidin 1 ppm) was “D” and the Antimicrobial activity (Soy sauce, salt 8% (w/v), alcohol 0% (v/v), licoricidin 5 ppm) was “A (The bacterial count decreases to less than 10% of the bacterial count of the control group.)”. For the same compound, the Antimicrobial activity (Soy sauce, salt 8% (w/v), alcohol 0% (v/v), licoricidin 10 ppm) was “A (The bacterial count decreases to less than 10% of the bacterial count of the control group.)”, the Antimicrobial activity (Soy sauce, salt 8% (w/v), alcohol 0% (v/v), licoricidin 25 ppm) was “A (The bacterial count decreases to less than 10% of the bacterial count of the control group.)” and the Antimicrobial activity (Soy sauce, salt 8% (w/v), alcohol 0% (v/v), licoricidin 50 ppm) was “A (The bacterial count decreases to less than 10% of the bacterial count of the control group.)”. For the same compound, the Antimicrobial activity (Soy sauce, salt 12% (w/v), alcohol 0% (v/v), licoricidin 1 ppm) was “B (The bacterial count decreases to 10% or more and less than 50% of the bacterial count of the control group.)”, the Antimicrobial activity (Soy sauce, salt 12% (w/v), alcohol 0% (v/v), licoricidin 5 ppm) was “A (The bacterial count decreases to less than 10% of the bacterial count of the control group.)” and the Antimicrobial activity (Soy sauce, salt 12% (w/v), alcohol 0% (v/v), licoricidin 10 ppm) was “A (The bacterial count decreases to less than 10% of the bacterial count of the control group.)”. For the same compound, the Antimicrobial activity (Soy sauce, salt 12% (w/v), alcohol 0% (v/v), licoricidin 25 ppm) was “A (The bacterial count decreases to less than 10% of the bacterial count of the control group.)” and the Antimicrobial activity (Soy sauce, salt 12% (w/v), alcohol 0% (v/v), licoricidin 50 ppm) was “A (The bacterial count decreases to less than 10% of the bacterial count of the control group.)”.
